# Reference: patent publication US20200318195A1, “Bivalent Nucleic Acid Ligands and Uses Therefor” (Carnegie Mellon University, priority 2017, published 2020)
# Key:
# R11U [1] = assay: Steady-state fluorescent measurements of ligand with R11U; assay type: binding
# Method: (§1) FIG. 14. The effects of ligand orientation (LG2P), mismatched R11U and single-stranded targets (WS+CS). Inset: Fluorescent spectra of the corresponding samples after addition of 2.5 μM of pentamidine.
# (§2) To further corroborate the UV-Vis and CD findings, we measured the fluorescent signals of ligands with and without RNA targets following an excitation at 330 nm (λmax of E-base). We observed a significant fluorescent quenching of LG3 compared to that of LG1 and LG2. Such a drastic reduction in the fluorescent signals could be due to photo-induced electron transfer quenching, which is expected to be most efficient for LG3 since the fluorophore (E) is stacked between two other J-bases. […] With all three ligands, the emission signals were further reduced upon the addition of R11A, but most dramatically with LG2, 60% reduction with LG2 as compared to 35 and 33% with LG1 and LG3, respectively. […]
# (§3) The samples were prepared in 0.1× PBS buffer. […] All steady-state fluorescence samples were prepared by mixing ligands with RNA at the indicated concentrations in 0.1× PBS buffer, and annealed by incubation at 90° C. for 5 min followed by a gradual cooling to 37° C. […] Steady-state fluorescence data were collected at 25° C. by Cary Eclipse Fluorescence Spectrometer. […]
# [WS+CS] = Steady-state fluorescent measurements of ligand with single strands; assay type: binding
# Method: as §1, §2, §3
# R11A [2] = assay: Steady-state fluorescent measurements of ligand with R11A; assay type: binding; settings: for fluorescent signals of ligand with R11A in presence of pentamidine: 2.5 uM of pentamidine; for reduction of emission signals upon the addition of R11A: 0.1x PBS
# Method: as §1
# To further corroborate the UV-Vis and CD findings, we measured the fluorescent signals of ligands with and without RNA targets following an excitation at 330 nm (λmax of E-base). We observed a significant fluorescent quenching of LG3 compared to that of LG1 and LG2. Such a drastic reduction in the fluorescent signals could be due to photo-induced electron transfer quenching, which is expected to be most efficient for LG3 since the fluorophore (E) is stacked between two other J-bases. […] With all three ligands, the emission signals were further reduced upon the addition of R11A, but most dramatically with LG2, 60% reduction with LG2 as compared to 35 and 33% with LG1 and LG3, respectively. We observed a similar fluorescent quenching pattern upon the incubation of LG2 with R11U, [WS+CS], HP, and LG2P with R11A (FIG. 14)—although less dramatic as compared to that of LG2 with R11A. […] To test the hypothesis that the nonspecific binding of ligand to RNA can lead to fluorescent quenching, we incubated the respective RNA targets with pentamidine prior to adding LG2 and vice versa.
# The samples were prepared in 0.1× PBS buffer. All spectra represent an average of at least fifteen scans collected at 100 nm/min rate between 200 and 375 nm, in a 1-cm path-length cuvette at 25° C. CD spectrum from buffer solution was subtracted from the sample spectra, which were then smoothed via a five-point adjacent averaging algorithm. Steady-State fluorescent measurements. All steady-state fluorescence samples were prepared by mixing ligands with RNA at the indicated concentrations in 0.1× PBS buffer, and annealed by incubation at 90° C. for 5 min followed by a gradual cooling to 37° C. The samples were incubated at 37° C. for 1 hr before the measurements. Steady-state fluorescence data were collected at 25° C. by Cary Eclipse Fluorescence Spectrometer. (εex=330 nm, εem=340-600 nm) with slit size.
# [3] = system: single-stranded WS and CS; assay: CD of ligand with single-stranded RNA targets; assay type: binding; settings: 0.1x PBS
# Source text: (§4) FIG. 13. CD spectra of LG2 with the (A) mismatched R11U, (B) single-stranded WS and CS, and (C) double-stranded HP containing a single binding-site, as well as that of (D) LG2P with R11A. CD spectra of RNAs (line) and that of the [RNA+ligand] mixtures (dash).
# (§5) A series of model RNA targets were chosen for binding study (FIG. 11). The R11X series comprised 24 rCXG-repeats (FIG. 11 (A)), which, upon adopting a secondary hairpin structure, provided 11 binding sites for ligands (FIG. 11(B)). R11A contained the perfect-match (A-A), while R11U and R11C contained the respective U—U and C—C mismatches for ligand binding. R11G (X=G) was not ascertained since it has shown to be capable of forming G-quadruplex as well as hairpin structures, which could confound the interpretation of the experimental results. Single-stranded RNA targets, WS (Watson Strand) and CS (Crick Strand), with the LG2 binding-site underlined (FIG. 11 (C)), as well as double-stranded hairpin HP containing a single ligand binding-site (FIG. 11 (D)), were also examined. […]
# as §3
# R11A [4] = assay: NMR titration of ligand with R11A; assay type: binding; settings: R11A 0.1 mM, 0.1x PBS
# Method: FIG. 15. NMR titration of LG2 with R11A. The concentration of R11A was 0.1 mM. Aliquots of LG2 at the indicated molar ratios were added to R11A and incubated at 37° C. for 15 min prior to data acquisition. Solvent-exchangeable protons are indicated by dashed lines, and nonexchangeable protons by vertical solid lines.
# To gain insight into the binding mode of LG2, we performed a series of multinuclear and multidimensional NMR experiments with LG2, R11A, and in combination. The samples were prepared in the same 0.1× PBS buffer as before, containing a 9:1 volume ratio of H2O:D2O The NOESY data were collected at 300, 200, and 100 ms mixing times to obtain proton-proton distance, while COSY experiments were performed to map the proton spin-system of each residue. The expectation was that H-bonding interactions between LG2 and R11A would result in line-broadening and downfield chemical shift of the imino proton signals of the canonical G-C/C-G pairs due to base-pair opening, and in an emergence of a new set of imino proton signals due to the formation of H-bonds between ligand and RNA. […] Variable-temperature measurements further supported this chemical shift assignment, showing a gradual decay in peak intensity with increasing temperature while that of the non-exchangeable protons remained fairly constant. Partial assignments of the nucleobase protons were made by NOESY experiments. […]
# R11U [5] = assay: CD of ligand with mismatched R11U; assay type: binding; settings: 0.1x PBS
# Source text: as §4, §5, §3
# R11C = assay: CD of ligand with mismatched R11C; assay type: binding; settings: 0.1x PBS; data not shown
# Source text: as §5, with “examined. The samples were prepared by incubating the pre-annealed RNAs with respective ligands in 0.1× PBS buffer (1 mM NaPi, 13.7 mM NaCl, 0.27 mM KCl; pH 7.4) at 37° C.” for “examined.”
# as §3
# [6] = system: double-stranded HP containing a single binding-site; assay: CD of ligand with hairpin containing a single binding-site; settings: 0.1x PBS
# Source text: as §4, §5, §3
# HP = assay: Steady-state fluorescent measurements of ligand with HP; assay type: binding; settings: excitation at 330 nm
# Source text: To further corroborate the UV-Vis and CD findings, we measured the fluorescent signals of ligands with and without RNA targets following an excitation at 330 nm (λmax of E-base). We observed a significant fluorescent quenching of LG3 compared to that of LG1 and LG2. Such a drastic reduction in the fluorescent signals could be due to photo-induced electron transfer quenching, which is expected to be most efficient for LG3 since the fluorophore (E) is stacked between two other J-bases. […] With all three ligands, the emission signals were further reduced upon the addition of R11A, but most dramatically with LG2, 60% reduction with LG2 as compared to 35 and 33% with LG1 and LG3, respectively. We observed a similar fluorescent quenching pattern upon the incubation of LG2 with R11U, [WS+CS], HP, and LG2P with R11A (FIG. 14)—although less dramatic as compared to that of LG2 with R11A. […]
# as §3
# R11A [7] = assay: CD of ligand with perfect-match rCAG hairpin R11A; assay type: binding; settings: 0.1x PBS
# Method: FIG. 12. CD titration of LG2 with R11A. The concentration of R11A was 0.5 μM and those of LG2 were X: 0, 1.5, 2.5, 3.5, 4.5, 5.5, 6.5, 8.5, and 11.5 μM. After the addition of LG2 to R11A, the mixtures were incubated at 37° C. for 30 min prior to the acquisition of data at 25° C.
# as §4
# A series of model RNA targets were chosen for binding study (FIG. 11). The R11X series comprised 24 rCXG-repeats (FIG. 11 (A)), which, upon adopting a secondary hairpin structure, provided 11 binding sites for ligands (FIG. 11(B)). R11A contained the perfect-match (A-A), while R11U and R11C contained the respective U—U and C—C mismatches for ligand binding. […]
# as §3
substance,measurement,setting,value
H-EFI-Lys-NH2 [LG2],fluorescent signals of ligand with R11U in presence of pentamidine,R11U [1]; 2.5 uM of pentamidine,fully recovered
same,fluorescent quenching with R11U compared to that of LG2 with R11A,R11U [1]; excitation at 330 nm,less dramatic
same,fluorescent signals of ligand with [WS+CS] in presence of pentamidine,[WS+CS]; 2.5 uM of pentamidine,fully recovered
same,fluorescent quenching with [WS+CS] compared to that of LG2 with R11A,[WS+CS]; excitation at 330 nm,less dramatic
same,fluorescent signals of ligand with R11A in presence of pentamidine,R11A [2],remained suppressed
same,reduction of emission signals upon the addition of R11A,R11A [2]; excitation at 330 nm,60%
same,change in CD signals after incubation with single-stranded WS and CS,[3],no significant differences in the CD signals
same,new imino proton signals in the 10-20 ppm regimes (H-bond formation between ligand and RNA),R11A [4],did not observe any new imino proton signals
same,imino proton signal of R11A upon the addition of ligand,R11A [4]; 9:1 H2O:D2O,gradually broadened and downfield-shifted
same,change in CD signals after incubation with mismatched R11U,R11U [5],no significant differences in the CD signals
same,change in CD signals after incubation with mismatched R11C,R11C,no significant differences in the CD signals
same,change in CD signals after incubation with HP,[6],no significant differences in the CD signals
same,fluorescent quenching with HP compared to that of LG2 with R11A,HP,less dramatic
same,"differential in CD amplitude with R11A, among the ligand series",R11A [7]; signals at ~270 nm,largest differential in CD amplitude
H-FIE-Lys-NH2 [LG1],reduction of emission signals upon the addition of R11A,R11A [2]; excitation at 330 nm,35%
H-IEF-Lys-NH2 [LG3],reduction of emission signals upon the addition of R11A,R11A [2]; excitation at 330 nm,33%
H-IPE-Lys-NH2 [LG2P],fluorescent signals of ligand with R11A in presence of pentamidine,R11A [2],fully recovered
same,fluorescent quenching with R11A compared to that of LG2 with R11A,R11A [2]; excitation at 330 nm,less dramatic
same,change in CD signals after incubation with R11A,R11A [7],no significant differences in the CD signals
